# Entries after “also recorded” stand apart in the source; their conditions may differ. Where two headings read alike, the source gives them in different places.
# Key:
# [1] = system: α‐glucosidase; assay: α-Glucosidase inhibitory assay (p-nitrophenyl-α-D-glucopyranoside, microplate reader); type: biochemical; conditions: mean ± SEM, three independent experiments in triplicate
# Protocol: After incubation (15 min, 37°C), the reaction was initiated by adding 20 μL of 2.5‐mM p‐nitrophenyl‐α‐D‐glucopyranoside. After an additional 15 min at 37°C, the reaction was stopped with 80 μL of 0.2‐M Na2CO3. The released p‐nitrophenol was quantified spectrophotometrically at λ 405 nm using a microplate reader. One set of mixtures prepared with an equivalent volume of methanol instead of the test samples was used as a control. Another set of mixtures prepared with an equivalent volume of phosphate buffer instead of the enzyme was used as a blank. The inhibition of the enzyme (%) was calculated according to the formula: […]. […] The results are summarized in Table 2 and expressed as the mean ± SEM for three independent experiments measured in triplicate.
# [2] = molecular target: protein tyrosine phosphatase 1B (PTP1B); conditions: cited from earlier work
# [3] = system: L6 myotube cells; design: method as in PMID 19548274; conditions: cited from earlier work
# [4] = system: GLUT4; assay: GLUT4 translocation to plasma membrane fraction in C2C12 myotubes (Western blot); type: cell-based, mouse; conditions: 5 μM, 24 h, C2C12 differentiated myotubes, vs DMSO control
# Protocol: The C2C12 cell line was incubated in containers with a surface area of 75 cm^2 (tissue‐culture treated) to 100% confluence in full serum DMEM High Glucose medium. Then the culture medium was changed to DMEM High Glucose medium, supplemented with antibiotics, and 2% horse serum (Biosera) to start the differentiation of myoblasts into myocytes. The medium was renewed every 2 days, and the formation of myocytes was observed using a microscope. After 6 days of differentiation, the culture medium was changed to DMEM High Glucose serum‐free medium, and the test compounds were added at a non‐toxic concentration of 5 μM dissolved in DMSO. The effect of the test compounds on the viability of C2C12 myocytes was determined using a WST‐1 kit (Roche, Basel, Switzerland), according to the manufacturer's manual. The final concentration of DMSO in the medium was 0.1% (v/v). […]
# The effects of the test compounds on the protein expression of GLUT4 in the total cellular fraction and on GLUT4 translocation to the plasma membrane fraction were measured using PAGE and Western blot with specific antibodies. […]
# To quantify the effects of the test compounds on GLUT4 expression and translocation, the optical densities (OD) of the corresponding bands shown by Western blot analysis were calculated and expressed as a ratio of ODGLUT4 / ODβ‐actin for GLUT4 expression in whole‐cell lysates. […]
# [5] = system: GLUT4; design: method as in PMID 17201692; conditions: 3T3-L1 adipocytes; cited from earlier work
# [6] = system: α‐glucosidase; conditions: cited from earlier work
% of inhibition (200 μM) [1],IC50 [1],Structure (SMILES),other results
26.8 ± 2.1%,> 200 µM,"C[C@@H]1[C@H](O)C[C@]2(C(=O)O)CC[C@]3(C)C(=CCC4[C@@]5(C)CC[C@H](O)C(C)(C)C5CC[C@]43C)C2[C@H]1C (stereo partly drawn) [Compound 6, 21α‐hydroxyursolic acid]",–
–,163 ± 15.4 µM,"C[C@@H]1CC[C@]2(C(=O)O)CC[C@]3(C)C(=CC(=O)C4[C@@]5(C)CC[C@H](O)C(C)(C)C5CC[C@]43C)C2[C@H]1C (some centres unmarked) [Compound 7, 11‐oxoursolic acid]",–
49.9 ± 3.3%,> 200 µM,"CC1(C)CC[C@]2(C(=O)O)CC[C@]3(C)C(=CC(=O)C4[C@@]5(C)CC[C@H](O)C(C)(C)C5CC[C@]43C)C2C1 (some centres unmarked) [Compound 8, 11‐oxooleanolic acid]",–
65.7 ± 4.1%,–,"C[C@H]1[C@H](C)CC[C@]2(C(=O)O)CC[C@]3(C)C(=CC[C@@H]4[C@@]5(C)CC[C@H](O)C(C)(C)[C@@H]5CC[C@]43C)[C@H]12 [Compound 9, ursolic acid]",IC50 ([2]; read-out: PTP1B IC50): 3.1 ± 0.2 µM; Translocation of GLUT4 [5]: enhanced; 2-deoxy-D-[3H]-glucose uptake increase [3]: 1.84 fold
67.5 ± 1.4%,–,"CC1(C)CC[C@]2(C(=O)O)CC[C@]3(C)C(=CC[C@@H]4[C@@]5(C)CC[C@H](O)C(C)(C)[C@@H]5CC[C@]43C)[C@@H]2C1 [Compound 10, oleanolic acid]",–
64.4 ± 2.0%,45.3 ± 1 µM,"C=C(C)[C@@H]1CC[C@]2(C(=O)O)CC[C@]3(C)[C@H](CC[C@@H]4[C@@]5(C)CC[C@H](O)C(C)(C)[C@@H]5CC[C@]43C)[C@@H]12 [Compound 11, betulinic acid]","PTP1B IC50 [2]: 0.7 ± 0.03 µg/mL; IC50 ([2]; conversion of the μg/mL value, read-out: PTP1B IC50 (converted to μM)): 1.53 µM; GLUT4 translocation (GLUT4/ATPA1 ratio in plasma membrane fraction) [4]: no activity"

# More lines, now with the values behind:
Structure (SMILES),% of inhibition (200 μM) [1],IC50 [1],other results
"CC1CC=C(C(C)(C)OOC23CC(C)CC=C2C(C)(C)OO3)C(=O)C1 (centres unmarked) [Compound 1, ziziphora diperoxy dimer]",6.0 ± 1.9%,> 200 µM,–
"CC1=C2C=C3CCC4C(C)(C)CCC[C@@]4(C)C3CC2OC1=O (some centres unmarked) [Compound 2, jolkinolide E]",25.0 ± 1.4%,> 200 µM,–
"C=C(C)[C@@H]1CC[C@]2(CO)CC[C@]3(C)[C@H](CC[C@@H]4[C@@]5(C)CC[C@H](O)C(C)(C)[C@@H]5CC[C@]43C)[C@@H]12 [Compound 3, betulin]",24.0 ± 6.0%,> 200 µM,–
"C=C(CO)[C@@H]1CC[C@]2(C(=O)O)CC[C@]3(C)C(CCC4[C@@]5(C)CC[C@H](O)C(C)(C)C5CC[C@]43C)C12 (some centres unmarked) [Compound 4, 30‐hydroxybetulinic acid]",34.0 ± 4.9%,> 200 µM,–
"C[C@@H]1CC[C@]2(C(=O)O)CC[C@]3(C)C(=CC[C@@H]4[C@@]5(C)CC[C@H](O)C(C)(C)[C@@H]5CC[C@]43C)[C@@H]2[C@]1(C)O [Compound 5, pomolic acid]",41.9 ± 4.1%,> 200 µM,IC50 ([2]; read-out: PTP1B IC50): 3.9 ± 0.8 µM; 2-deoxy-D-[3H]-glucose uptake increase [3]: 1.6 fold; GLUT4 translocation (GLUT4/ATPA1 ratio in plasma membrane fraction) [4]: increased; also recorded: tripling
CC1(C)[C@@H](O)CC[C@]2(C)[C@H]3C(=O)C=C4[C@@H]5C[C@@](C)(C(=O)O)CC[C@]5(C)CC[C@@]4(C)[C@]3(C)CC[C@@H]12 [glycyrrhetic acid],–,–,α-Glucosidase inhibitory activity [6]: inactive
